≈ marks a conversion by molar mass, not a printed value.
Assays:
Experiment in all cases: in vitro antibacterial evaluation, MIC by broth dilution
Format in all cases: cell-based
Conditions in all cases: broth dilution, 18 hours at 35° C.
Enterococcus sp. = system: Enterococcus sp.
Description: (§1) Methods for in vitro Antibacterial Evaluation (Table 1)
(§2) The minimum inhibitory concentration (MIC), the lowest concentration of the antibiotic which inhibits growth of the test organism, is determined by the broth dilution method using Muller-Hinton II […] (Baltimore Biological Laboratories) following the recommendations of the National Committee for Clinical Laboratory Standards [Methods for dilution antimicrobial susceptibility tests for bacteria that grow aerobically, approved standard M7-A2, National Committee for Clinical Laboratory Standards, Villanova, Pa.].
(§3) An inoculum level of 5×10^5 CFU/mL, and a range of antibiotic concentrations (64-0.06 μg/mL) is used. […] The test organisms include a spectrum of Gram-positive bacteria comprised of Staphylococcus sp., Streptococcus sp. and Enterococcus sp. These organisms include recent clinical isolates that are resistant to methicillin, penicillin and/or vancomycin.

Staphylococcus sp. = system: Staphylococcus sp.
Description: as §1, §2, §3

Streptococcus sp. = system: Streptococcus sp.
Description: as §1, §2, §3

Escherichia coli = system: Escherichia coli
Procedure, shortened: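 Broth dilution in Muller-Hinton II medium per NCCLS standard M7-A2, with an inoculum of 5×10^5 CFU/mL and antibiotic tested over 64-0.06 μg/mL. MIC was taken as the lowest concentration inhibiting visible growth.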

MIC Enterococcus avium (GC 4558) (Enterococcus sp.; Enterococcus avium (GC 4558)): 128 µg/mL (≈ 130 µM) | MIC Enterococcus faecalis (ATCC 29212) (Enterococcus sp.; Enterococcus faecalis (ATCC 29212)): >128 µg/mL | MIC Enterococcus faecalis (GC 4552) (Enterococcus sp.; Enterococcus faecalis (GC 4552)): >128 µg/mL | MIC Enterococcus faecalis (GC 4553) (Enterococcus sp.; Enterococcus faecalis (GC 4553)): >128 µg/mL | MIC Enterococcus faecalis (GC 4554) (Enterococcus sp.; Enterococcus faecalis (GC 4554)): >128 µg/mL | MIC Enterococcus faecalis (GC 6189) (Enterococcus sp.; Enterococcus faecalis (GC 6189)): >128 µg/mL | MIC Enterococcus faecium (GC 2243) (Enterococcus sp.; Enterococcus faecium (GC 2243)): >128 µg/mL | MIC Enterococcus faecium (GC 4556) (Enterococcus sp.; Enterococcus faecium (GC 4556)): >128 µg/mL | MIC Enterococcus faecium (GC 4557) (Enterococcus sp.; Enterococcus faecium (GC 4557)): 128 µg/mL (≈ 130 µM) | MIC Enterococcus faecalis (ATCC 29212) (Enterococcus sp.; strain ATCC 29212): >128 µg/mL | MIC Enterococcus faecalis (GC 2242) (Enterococcus sp.; strain GC 2242): >128 µg/mL | MIC Enterococcus faecium (GC 2243) (Enterococcus sp.; strain GC 2243): >128 µg/mL | MIC Enterococcus faecalis (GC 2691) (Enterococcus sp.; strain GC 2691): >128 µg/mL | MIC Enterococcus faecalis (GC 3059) (Enterococcus sp.; strain GC 3059): >128 µg/mL | MIC Enterococcus faecalis (GC 4552) (Enterococcus sp.; strain GC 4552): >128 µg/mL | MIC Enterococcus faecalis (GC 4553) (Enterococcus sp.; strain GC 4553): >128 µg/mL | MIC Enterococcus faecalis (GC 4554) (Enterococcus sp.; strain GC 4554): >128 µg/mL | MIC Enterococcus faecium (GC 4556) (Enterococcus sp.; strain GC 4556): >128 µg/mL | MIC Enterococcus faecium (GC 4557) (Enterococcus sp.; strain GC 4557): 128 µg/mL (≈ 130 µM) | MIC Enterococcus avium (GC 4558) (Enterococcus sp.; strain GC 4558): 128 µg/mL (≈ 130 µM) | MIC Enterococcus faecalis (GC 6189) (Enterococcus sp.; strain GC 6189): >128 µg/mL | MIC Staphylococcus aureus (ATCC 29213) (Staphylococcus sp.; strain ATCC 29213): >128 µg/mL | MIC Staphylococcus aureus (GC 1131) (Staphylococcus sp.; strain GC 1131): >128 µg/mL | MIC Staphylococcus aureus (GC 3051) (Staphylococcus sp.; strain GC 3051): >128 µg/mL | MIC Staphylococcus aureus (GC 3053) (Staphylococcus sp.; strain GC 3053): >128 µg/mL | MIC Staphylococcus aureus (GC 4541) (Staphylococcus sp.; strain GC 4541): >128 µg/mL | MIC Staphylococcus aureus (GC 4542) (Staphylococcus sp.; strain GC 4542): >128 µg/mL | MIC Staphylococcus aureus-SMITH (GC 4543) (Staphylococcus sp.; strain GC 4543): >128 µg/mL | MIC Staphylococcus aureus (GC 4544) (Staphylococcus sp.; strain GC 4544): >128 µg/mL | MIC Staphylococcus aureus (GC 4545) (Staphylococcus sp.; strain GC 4545): >128 µg/mL | MIC Coagulase Negative Staphylococcus (GC 4547) (Staphylococcus sp.; strain GC 4547): >128 µg/mL | MIC Coagulase Negative Staphylococcus (GC 4548) (Staphylococcus sp.; strain GC 4548): >128 µg/mL | MIC Coagulase Negative Staphylococcus (GC 4549) (Staphylococcus sp.; strain GC 4549): >128 µg/mL | MIC Coagulase Negative Staphylococcus (GC 4551) (Staphylococcus sp.; strain GC 4551): >128 µg/mL | MIC Streptococcus pneumoniae (ATCC 6301) (Streptococcus sp.; strain ATCC 6301): >128 µg/mL | MIC Streptococcus pneumoniae (GC 1894) (Streptococcus sp.; strain GC 1894): 128 µg/mL (≈ 130 µM) | MIC Streptococcus pyogenes (GC 4563) (Streptococcus sp.; strain GC 4563): >128 µg/mL | MIC Streptococcus agalactiae (GC 4564) (Streptococcus sp.; strain GC 4564): >128 µg/mL | MIC Streptococcus pneumoniae (GC 4565) (Streptococcus sp.; strain GC 4565): >128 µg/mL | MIC Escherichia coli (ATCC 25922) (Escherichia coli; strain ATCC 25922): >128 µg/mL | MIC Escherichia coli (GC 4559) (Escherichia coli; strain GC 4559): >128 µg/mL | MIC Escherichia coli (GC 4560) (Escherichia coli; strain GC 4560): >128 µg/mL
Structure (SMILES): CC(C1CCCCC1)C1NC(=O)CNC(=O)C(CO)NC(=O)C(C(O)C2CNC(=N)N2C2OC(CO)C(O)C(O)C2O)NC(=O)C(C(O)C2CNC(=N)N2)NC(=O)C(C[C@H]2CC[C@@H](O)CC2)NC1=O (stereo partly drawn) [Example 54, Cyclo[3-(syn-4-hydroxycyclohexyl)alanyl-3-(2-ininoimidazolidin-4-yl)seryl-3-(3-hexopyranosyl-2-iminoimidazolidin-4-yl)serylserylglycyl-3-cyclohexyl-2-aminobutanoyl]]
MIC Staphylococcus haemolyticus (GC 4546) (Staphylococcus sp.; strain GC 4546): >128 µg/mL

Source: US6914045B2, “Glycopeptide antibiotics” (Wyeth Holdings Corporation, priority 2001, dated 2005)
